In US11285192B2, “Formulation including a combination of beta-endorphin and adrenocorticotropic hormone” (Adamis Pharmaceuticals Corporation, priority 2019, dated 2022):
Counter-ions that a name gives are not always drawn.

How the values were obtained:
[1] = per one mg of ACTH, based on rat potency testing; cited from earlier work
[2] = test system: EAE induced by PLP139-151/CFA Emulsion PTX; conditions: past experience with this model; cited from earlier work
[3] = test system: EAE induced by PLP139-151/CFA Emulsion PTX; test: EAE prophylactic model, treatment from immunization, with pertussis toxin (Example 5); type: in vivo, mouse; conditions: 3 mg/kg p.o. daily
Method: The efficacy of the combination of ACTH and β-endorphin was also tested in a prophylactic model of EAE. In contrast with the therapeutic model used above, in which treatment is initiated only after EAE onset and recovery from the first wave of the disease, in the prophylactic model, treatment is initiated at the time of immunization and the mice are followed for only 3 weeks. Additionally, pertussis toxin (PTX) is used as an additional adjuvant in the immunization, producing a more sever first wave of disease with slower recovery.
Mice were injected subcutaneously at four sites in the back with 0.05 mL of the emulsion component of HOOKE KIT™ PLP139-151/CFA Emulsion PTX (catalog number EK-2120; Hooke Laboratories, Lawrence Mass.). Two sites of injection were in the upper back approximately 1 cm caudal of the neck line. The other two sites were in the lower back approximately 2 cm cranial of the base of the tail. Two hours later the pertussis toxin component of the kit was administered intraperitoneally. A 30 ng dose of PTX was used to attain optimal disease severity. Mice were administered vehicle or 128 μg ACTH+64 μg β-endorphin by subcutaneous injection every 2nd day, as a negative control and test treatment, respectively. As reference treatment (positive control) mice received 3 mg/kg FTY720 daily by oral administration. There were 12 mice in each of these three groups. The vehicle and test treatment groups were dosed from Day 0 through Day 18 (the last dose in the test treatment group was 88 μg ACTH+44 μg β-endorphin due to lab mishap). The reference treatment group was dosed from Day 0 through Day 19. Clinical scoring was as presented in Table 4 (above) beginning on Day 7 and continuing through Day 20.

[4] = test system: EAE induced in SJL mice by PLP139-151/CFA immunization; test: EAE therapeutic model repeated with greater doses, FTY720 reference (Example 4); type: in vivo, mouse
Method: To further explore the effect of dosage, the model was repeated, essentially as described in Example 3, using greater doses, specifically 53 μg of ACTH+27 μg of β-endorphin (low dose), and 128 […] of ACTH+64 μg of β-endorphin (high dose). Additionally FTY720 (fingolimod, an FDA-approved drug for the treatment of multiple sclerosis) was used as a reference (positive control) treatment instead of prednisolone, which had not shown strong efficacy in Example 3. FTY720 is one of the most efficacious drugs in both EAE and MS. Immunization was on Day 0, treatment started on Day 20, and the mice were observed through Day 42.
Histological analysis confirmed the clinical findings (Table 9). Histologic readouts were inflammatory foci per section, demyelination (based on anti-myelin basic protein (MBP) staining), and apoptotic cells per section. […] A low number of inflammatory infiltrates confirms absence of both clinical and subclinical inflammation in the CNS. Histological findings in the high dose test group were generally similar to the FTY720 reference group.

[5] = test system: EAE induced in SJL mice by PLP139-151/CFA immunization; test: EAE late therapeutic model of relapsing-remitting multiple sclerosis, treatment from Day 20 (Example 3); type: in vivo, mouse
Method: The effect of administration of two dosages of ACTH and β-endorphin on severity and relapse in EAE was evaluated. EAE was induced in SJL mice by PLP139-151/CFA immunization on Day 0. Treatment was late therapeutic, starting on Day 20 after immunization for each mouse. Mice were observed through the end of the study, Day 42 after immunization. Four groups of 20 mice each received one of the following treatments: vehicle (a negative control); 10 mg/kg oral prednisolone daily (reference treatment); 32 μg ACTH+16 μg endorphin by subcutaneous injection, every 2nd day (low dose); or 64 μg ACTH+32 μg β-endorphin by subcutaneous injection, every 2nd day (high dose).
Mice were injected subcutaneously at four sites in the back with emulsion containing PLP139-151 (native sequence) from HOOKE KIT™ PLP139-151/CFA Emulsion, catalog number EK-0120 (Hooke Laboratories, Lawrence Mass.). Two sites of injection were in the upper back approximately 1 cm caudal of the neck line. The other two sites were in the lower back approximately 2 cm cranial of the base of the tail. The injection volume was 0.05 mL at each site. Even without treatment, most mice recover spontaneously after the first wave of disease. In the SJL model, EAE develops 10-15 days after immunization in 90-100% of immunized mice. The first wave of EAE lasts several days and most mice fully or almost fully recover from this first wave. After a disease-free period, which can last from one day to several months, most mice relapse. During the first 5-7 weeks after immunization, 50-100% of mice will develop a relapse. Each wave of paralysis results in body weight loss at onset, most of which is regained at recovery from the wave. The greatest weight loss is during the first wave of EAE. During the chronic phase of disease, the average EAE body weight is relatively stable, with normal slow increase with age. Since individual mice experience relapses at different times, only a few mice in each group are acutely sick at any given time after the first wave of EAE. Therefore, significant differences in relative body weight between groups are often not found after the first wave of disease in this model. In the vehicle treated group, disease developed as expected for this model. Five (5) mice were euthanized on Day 30 for analysis. Relapse occurred in 7 out of the 15 remaining mice, which were followed to Day 42, with typical course and severity of disease.
100 EAE induced mice were initially considered a single group and were scored daily starting on Day 9 after immunization. […]
Treatment started on the day of group assignment (Day 20 after immunization). […] EAE score was determined daily by a person unaware of both treatment and of previous scores for each mouse. Weight was measured 3 times a week. […]

ACTH: 39 amino acid peptide, adrenocorticotropic hormone (SYSMEHFRWGKPVGKKRRPVKVYPNGAEDESAEAFPLEF; Corticotropin; UniProt P01189 138-176, looked up)
Potency of ACTH in units [1]: about 150 units

COC(=O)/C=C/C(=O)OC [TECFIDERA®, dimethyl fumarate]
Complete suppression of development of EAE [2]: neither COPAXONE® (glatiramer acetate injection) nor TECFIDERA® (dimethyl fumarate) completely suppressed development of EAE

CCCCCCCCc1ccc(CCC(N)(CO)CO)cc1 [FTY720, fingolimod]
End % body weight ± SD ([3]; Day 0-19): 98.3% ± 7.8%
MMS ± SD ([3]; Day 0-19): 0.92 ± 1.16
End score ± SD ([3]; Day 0-19, Day 20): 0.79 ± 1.01
Median day of onset (all mice) ([3]; Day 0-19, cannot be calculated if ≤50% of mice developed disease): >20.0^1
EAE incidence (%) ([3]; Day 0 through Day 19, scored through Day 20): 41.7%
Apoptotic cells/section ± SD ([4]; 1 mg/kg p.o. QD): 0.3 ± 0.4 cells/section
Demyelination (anti-MBP) ± SD ([4]; 1 mg/kg p.o. QD): 0.1 ± 0.2
Incidence of relapse ([4]; 1 mg/kg p.o. QD from Day 20): 12.5%
MMS of relapse period ± SD (Days 20-42) ([4]; 1 mg/kg p.o. QD from Day 20): 1.94 ± 0.50
End % body weight ± SD ([4]; 1 mg/kg p.o. QD from Day 20, % of starting weight): 97.65 ± 5.3%
End score ± SD ([4]; 1 mg/kg p.o. QD from Day 20, Day 42): 1.06 ± 0.62
Inflammatory foci/section ± SD ([4]; 1 mg/kg p.o. QD, spinal cord histology): 0.5 ± 0.4 foci/section

C[C@]12C=CC(=O)C=C1CC[C@@H]1[C@@H]2[C@@H](O)C[C@@]2(C)[C@H]1CC[C@]2(O)C(=O)CO [Prednisolone, prednisolone]
Change in body weight versus vehicle control (FIG. 2) ([5]; 10 mg/kg p.o. daily): statistically significant loss of weight versus the vehicle control
MMS of relapse period ± SD (Days 25-42) ([5]; 10 mg/kg p.o. daily from Day 20, mean maximal score): 2.07
Iba1 ± SD (% of area) ([5]; 10 mg/kg p.o. daily, microglial activation, % of total spinal cord area): 4.0 ± 1.2 % of area
Mean clinical score over the course of the study (FIG. 1), compared to vehicle ([5]; reference treatment 10 mg/kg p.o. daily): more moderate benefit
